Here are results for three molecules from PMC11357446, “Searching for Novel HDAC6/Hsp90 Dual Inhibitors with Anti-Prostate Cancer Activity: In Silico Screening and In Vitro Evaluation” (Pharmaceuticals, 2024).

For orientation: GI50 means the concentration at which growth is held to half of that of the control.

What all share (assay type): cell-based, human
The subject of data set [1] is PC-3 prostate cancer cells. In words: Cell viability assay (MTT) on PC-3 cells. The note with it: 72 h treatment, MTT, mean of three independent experiments ± SEM, read-out: PC-3 GI50. As for the experimental part: The human prostate cancer cell line PC-3 (ATCC Cat# CRL-1435) was grown in Ham’s F12 (Biowest, Nuaillé, France) medium, while the human prostate cancer cell line LNCaP (ATCC Cat# CRL-1740) was grown in RPMI 1640 (Biowest, Nuaillé, France) medium. Both media were supplemented with 10% Fetal Bovine Serum (FBS, Gibco, Fisher Scientific Italia, Segrate, Italy), 2 mM glutamine, 100 U/mL penicillin, and 100 μg/mL streptomycin. PC-3 and LNCaP cells were maintained at 37 °C in a humidified 5% CO2 atmosphere.
PC-3 and LNCaP cells were seeded at a density of 4000 and 6000 cells/well into a 96-well plate, respectively, together with a calibration curve of known cell numbers. The following day, the cells were treated with the indicated test compounds at different concentrations starting at 75μM with 2-fold serial dilutions. Cell viability was evaluated after 72h by colorimetric MTT (PC-3) or PrestoBlue™ (LNCaP) cell viability reagents. A total of 0.5 mg/mL of thiazolyl blue tetrazolium bromide (MTT) (Sigma-Aldrich, St. Louis, MO, USA) in Ham’s F12 medium was added to the wells, and the plate was incubated at 37 °C for 2 h. Medium containing unconverted MTT was removed, and 100 μL of MTT solvent (4 mM HCl, 0.1% NP40, in isopropyl alcohol) was added to the wells in order to solubilize MTT crystals. After 15 min of incubation at room temperature, the absorbance values at 570 nm were obtained with a Multiskan FC Microplate Photometer (Thermo Fisher Scientific, Waltham, MA, USA). PrestoBlue reagent (#A13261, Thermo Fisher Scientific, Waltham, MA, USA) was added to the medium (1:10 v/v) and incubated for 1 h at 37 °C. Cell viability was calculated by quantifying PrestoBlue reduction by measuring the absorbance at 570 and 620 nm, according to the manufacturer’s protocol. The viability of untreated cells was arbitrarily set at 100%, and the concentration at which cellular growth is inhibited by 50% (GI50) was determined. Three independent experiments were performed.

The test system of data set [2] is acetylated tubulin (Ac-Tub) in PC-3 cells. In words: Western blot of acetylated α-Tubulin in PC-3 cells. The note with it: 24 h at GI50 concentration, normalized with Tubulin. The procedure: (§1) To assess whether the observed antiproliferative activity of the selected compounds was a consequence of HDAC6-targeting, we examined the effect of the cell treatments on the expression levels of acetylated tubulin (Ac-Tub), a well-known HDAC6 target. LNCaP and PC-3 cells were treated with the tested compounds at their GI50 concentrations, and SDS-PAGE and western blot were performed. In addition, the acetylation levels of histone H3, which are mainly regulated by HDAC1, were also evaluated in order to exclude potential class I-HDAC off-target activities. We used Tubastatin-A and Geldanamycin as reference controls for cellular effects resulting from HDAC6- and Hsp90-inhibition, respectively. The results in Figure 2 show a significant increase in α-Tubulin acetylation in LNCaP cells after treatments with compounds 8, 11 and 18. Indeed, these compounds triggered a 2.9-, 5.1-, and 2.5-fold increase, respectively, compared to the control (DMSO). […].
Figure 2 Western blot analysis and relative quantification of the expression levels of acetylated-Tubulin (Ac-TUB), acetylated H3 (Ac-H3), and HSP70 in LNCaP (A,B) and PC-3 (C,D) cells treated for 24 h at GI50 concentration. […]
(§2) Cell treatment. […] Protein quantitation was performed with Pierce Detergent Compatible Bradford Assay (#23246, Thermo Fisher Scientific, MA, USA), and equivalent amounts of cellular extracts were resolved by SDS-PAGE, transferred to PVDF or Nitrocellulose membrane with Trans-Blot Turbo Transfer System (Bio-Rad, Hercules, CA, USA), and immunoblotted with the following primary antibodies, diluted 1:1000 in 1× TBS with 1 mg/mL BSA: Anti-Histone H3 (#PA5-16183, Invitrogen, Thermo Fisher Scientific, MA, USA), Anti-acetylated histone H3 (#sc-518011, Santa Cruz Biotechnology, Inc., Dallas, TX, USA), Anti-Tubulin (#E-AB-20073, Elabscience, Houston, TX, USA), Anti-acetylated α-tubulin (#sc-23950, Santa Cruz), and Anti-HSP70 (#4872S, Cell Signaling Technology, Inc., Danvers, MA, USA). […]
(Immunoblotting shows a protein as a band on a membrane.)

For data set [3], the system named is acetylated tubulin (Ac-Tub) in LNCaP cells. In words: Western blot of acetylated α-Tubulin in LNCaP cells. The note with it: 24 h at GI50 concentration, normalized with Tubulin. The procedure: as §1
Figure 2 Western blot analysis and relative quantification of the expression levels of acetylated-Tubulin (Ac-TUB), acetylated H3 (Ac-H3), and HSP70 in LNCaP (A,B) and PC-3 (C,D) cells treated for 24 h at GI50 concentration. Tubastatin-A was used as HDAC6-specific positive control, Geldanamycin (GELDA) as HSP90-specific positive control, and SAHA as pan-HDAC inhibitor. Protein expression was normalized with Tubulin levels (Ac-TUB and HSP70) or total H3 (Ac-H3). Quantification is reported as fold change in treated cells versus DMSO control (CTR), arbitrarily set at 1 (one sample t-test p-values: * p < 0.05, ** p < 0.01, *** p < 0.001, **** p < 0.0001; n = 3).
as §2, with “treatment. PC-3 and LNCaP cells were grown in 12-well tissue-culture plates and treated with test compounds at the evaluated GI50 concentration for each candidate inhibitor for 24 h. DMSO was used as a negative control, while Tubastatin-A and Geldanamycin were used as positive controls for HDAC6 and Hsp90 inhibition, respectively. Vorinostat (SAHA) was used as a pan-HDACi control.” for “treatment.”

For data set [4], the system named is acetylated H3 (Ac-H3) in LNCaP cells. Description: Western blot of acetylated histone H3 in LNCaP cells. The conditions noted are these: 24 h at GI50 concentration. As for the experimental part: as §1
(§3) Figure 2 Western blot analysis and relative quantification of the expression levels of acetylated-Tubulin (Ac-TUB), acetylated H3 (Ac-H3), and HSP70 in LNCaP (A,B) and PC-3 (C,D) cells treated for 24 h at GI50 concentration. Tubastatin-A was used as HDAC6-specific positive control, Geldanamycin (GELDA) as HSP90-specific positive control, and SAHA as pan-HDAC inhibitor. […]

The test system of data set [5] is acetylated H3 (Ac-H3) in PC-3 cells. In words: Western blot of acetylated histone H3 in PC-3 cells. The conditions noted are these: 24 h at GI50 concentration. As for the experimental part:
as §1, §3

Molecules are shown by their SMILES. Where two headings read alike, the source gives them in different places.

For `CC(C)[C@H](C(=O)NCc1ccc(C(=O)NO)cc1)N1Cc2ccccc2C1=O` [Compound 11], the concentration for 50% growth inhibition (GI50) in data set [1] (Homo sapiens, PC-3, 72 h) was determined as 13.9 ± 2.9 µM. In data set [2], the “α-Tubulin acetylation, fold induction versus DMSO control” value is listed as 5.5 fold. Besides, the “α-Tubulin acetylation, fold increase compared to the control (DMSO)” value (shortened to “α-Tubulin acetylation, fold increase”) in data set [3] worked out at 5.1 fold.

`O=C(c1cc(OCc2ccccc2)ccc1O)N1CCC(c2noc(C(F)(F)F)n2)CC1` [Compound 8]: the “induction of H3 acetylation” value in data set [4] and in data set [5] was “no remarkable induction of H3 acetylation” each time. Further, the 50% growth inhibitory concentration (GI50) in data set [1] was 51.8 ± 0.6 µM; in data set [1] (Homo sapiens, PC-3, 72 h) it was about 50 µM. Besides, in data set [2], the “α-Tubulin acetylation, fold induction versus DMSO control” value is recorded as 7.3 fold. In addition, the “α-Tubulin acetylation, fold increase” value in data set [3] is listed as 2.9 fold.

Consider `O=C(Nc1ncccc1O)c1ccc(-c2noc(C(F)(F)F)n2)cc1` [Compound 18], for which the GI50 in data set [1] (Homo sapiens, PC-3, 72 h) amounted to 21 ± 5.4 µM. Further, in data set [2], the “α-Tubulin acetylation, fold induction versus DMSO control” value turned out to be 4.9 fold. Moreover, the “α-Tubulin acetylation, fold increase” value in data set [3] stood at 2.5 fold.
